ChEMBL document CHEMBL1132770, “Selective kappa-opioid antagonists related to naltrindole. Effect of side-chain spacer in the 5'-amidinoalkyl series” (Bioorg Med Chem Lett, 2000)

Experiments:
[1] = biological target: T1, Mu-type opioid receptor (Homo sapiens, UniProt P35372); test: Compound was evaluated for its binding affinity against CHO cells transfected with cloned human Opioid receptor mu 1 by displacing [3H]DAMGO; assay type: cell-based
[2] = biological target: T2, Delta-type opioid receptor (Homo sapiens, UniProt P41143); test: Compound was evaluated for its binding affinity to CHO cells expressing cloned human Opioid receptor delta 1 by displacement of [3H]Cl-DPDPE; assay type: cell-based
T2 sequence (P41143 whole entry): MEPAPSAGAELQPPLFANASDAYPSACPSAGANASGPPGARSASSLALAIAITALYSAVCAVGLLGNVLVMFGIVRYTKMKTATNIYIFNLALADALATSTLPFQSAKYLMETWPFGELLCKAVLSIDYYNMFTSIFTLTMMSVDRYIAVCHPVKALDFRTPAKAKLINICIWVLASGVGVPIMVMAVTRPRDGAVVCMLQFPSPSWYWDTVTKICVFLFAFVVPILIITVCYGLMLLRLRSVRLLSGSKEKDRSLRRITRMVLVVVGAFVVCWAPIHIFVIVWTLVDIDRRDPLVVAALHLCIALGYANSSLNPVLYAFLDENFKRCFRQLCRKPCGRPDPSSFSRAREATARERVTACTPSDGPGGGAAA

[3] = biological target: T1, Mu-type opioid receptor; test: Compound was evaluated for its binding affinity by displacing DAMGO to human cloned mu opioid receptor transfected into CHO cells using [35S]GTP-gamma-S, assay; assay type: functional, cell-based
[4] = biological target: T3, Kappa-type opioid receptor (Homo sapiens, UniProt P41145); test: Compound was evaluated for its binding affinity to CHO cells expressing cloned human Opioid receptor kappa 1 by displacing [3H]U-69593; assay type: cell-based
T3 sequence (P41145 whole entry): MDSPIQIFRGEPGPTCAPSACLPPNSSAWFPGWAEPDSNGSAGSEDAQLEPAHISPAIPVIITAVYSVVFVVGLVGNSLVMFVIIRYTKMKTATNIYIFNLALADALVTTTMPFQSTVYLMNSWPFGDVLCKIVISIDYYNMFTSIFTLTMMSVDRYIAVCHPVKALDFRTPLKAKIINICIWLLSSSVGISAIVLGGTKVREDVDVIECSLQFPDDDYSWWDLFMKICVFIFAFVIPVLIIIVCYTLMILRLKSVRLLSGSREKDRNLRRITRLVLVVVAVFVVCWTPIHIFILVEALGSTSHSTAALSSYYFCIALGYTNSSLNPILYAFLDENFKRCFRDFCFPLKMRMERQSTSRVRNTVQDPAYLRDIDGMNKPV

[5] = biological target: T3, Kappa-type opioid receptor; test: Compound was evaluated for its binding affinity by displacing [3H]U-69593 to human cloned Kappa opioid receptor transfected into CHO cells using [35S]GTP-gamma-S, assay; assay type: functional, cell-based
[6] = biological target: T2, Delta-type opioid receptor; test: Compound was evaluated for functional opioid activity by stimulation of [35S]GTP-gamma-S, in cloned human Opioid receptor delta 1 transfected into CHO cells; assay type: cell-based
[7] = biological target: T2, Delta-type opioid receptor; test: Compound was evaluated for its binding affinity to CHO cells expressing cloned human Opioid receptor delta 1 by displacement of [3H]-Cl-DPDPE; assay type: cell-based
[8] = biological target: Mu-type opioid receptor (Cavia porcellus, UniProt P97266); test: Compound was evaluated for its binding affinity against Opioid receptor mu 1 of guinea pig brain membrane by displacing [3H]DAMGO
Sequence of Mu-type opioid receptor (Cavia porcellus, UniProt P97266) (P97266 whole entry): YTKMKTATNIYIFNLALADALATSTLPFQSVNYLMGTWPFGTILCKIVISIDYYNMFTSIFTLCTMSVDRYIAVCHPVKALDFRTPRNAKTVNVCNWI

T1 sequence (P35372 whole entry): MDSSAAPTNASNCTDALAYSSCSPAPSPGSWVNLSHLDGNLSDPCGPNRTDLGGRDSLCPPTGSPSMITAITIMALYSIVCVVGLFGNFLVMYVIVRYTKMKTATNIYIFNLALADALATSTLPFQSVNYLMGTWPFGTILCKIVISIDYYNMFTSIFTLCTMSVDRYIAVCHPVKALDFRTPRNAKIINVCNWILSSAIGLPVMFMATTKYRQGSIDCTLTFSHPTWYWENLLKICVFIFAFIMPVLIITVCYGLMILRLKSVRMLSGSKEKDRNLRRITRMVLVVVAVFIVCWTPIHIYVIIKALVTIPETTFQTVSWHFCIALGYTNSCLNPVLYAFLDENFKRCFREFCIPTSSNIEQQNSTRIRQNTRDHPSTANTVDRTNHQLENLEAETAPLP

With `CCCCC(=N)NCCc1ccc2[nH]c3c(c2c1)C[C@@]1(O)C2Cc4ccc(O)c5c4C1(CCN2CC1CC1)C3O5` (some centres undefined) the Ki [1] was 219 nM, the Ki [2] was 38.2 nM and the Ki [3] was 5.33 nM. It also gave a Ki [4] of 0.3 nM, a Ki [5] of 0.17 nM and a Ki [6] of 3.31 nM.
`CCCCC(=N)NCc1ccc2[nH]c3c(c2c1)C[C@@]1(O)C2Cc4ccc(O)c5c4C1(CCN2CC1CC1)C3O5` (some centres undefined) gave a Ki [7] of 5.5 nM and a Ki [8] of 3.5 nM.
Work on `NCCc1ccc2[nH]c3c(c2c1)C[C@@]1(O)C2Cc4ccc(O)c5c4C1(CCN2CC1CC1)C3O5` (some centres undefined) yielded a Ki [1] of 29.6 nM, a Ki [2] of 28.2 nM and a Ki [3] of 17.4 nM. The Ki [4] was 1.08 nM, the Ki [5] was 0.12 nM and the Ki [6] was 3.79 nM.
